According to patent publication EP0908457B1, “3-(1,2-benzisothiazol- and isoxazol-5-Y1)-2,4(1H,3H)-pyrimidinedione or thione and 3-(1,2-benzisothiazol- and isoxazol-5-y1)-4(3H)-pyrimidinone or thione herbicidal agents” (BASF AKTIENGESELLSCHAFT, priority 1997, dated 1999):

Legend:
[1] = test system: Echinochloa oryzoides (Ard.) Fritsch.; assay: Preemergence weed control under flooded paddy conditions, ECHORC (Watergrass (Calif.)); format: in vivo; settings: preemergence, flooded paddy; on herbicidal effect rating, ECHORC: meaning of each grade not given here
Cyperus iria = assay: Preemergence weed control under flooded paddy conditions, CYPIR (Rice Flatsedge); format: in vivo; settings: preemergence, flooded paddy; on herbicidal effect rating, CYPIR: meaning of each grade not given here
[2] = test system: Oryza sativa, (L.) Tebonnet; assay: Rice tolerance to post-transplant applications under flooded paddy conditions (Example 187), ORYSAT (Rice, Tebonnet); settings: for herbicidal effect rating ORYSAT: rated 3-4 weeks after treatment; for herbicidal effect rating, ORYSAT (rice tolerance) / ORYSAT herbicidal effect rating: rated three to four weeks after treatment; on herbicidal effect rating ORYSAT: meaning of each grade not given here
[3] = test system: Cyperus serotinus, Rottb.; assay: Preemergence weed control under flooded paddy conditions, CYPSE (Flatsedge); format: in vivo; settings: preemergence; on herbicidal effect rating, CYPSE: meaning of each grade not given here
[4] = test system: Monochoria vaginalis, Presl.; assay: Preemergence weed control under flooded paddy conditions, MOOVA (Monochoria); format: in vivo; settings: preemergence, flooded paddy; on herbicidal effect rating, MOOVA: meaning of each grade not given here
Sagittaria pygmaea, L. = assay: Preemergence weed control under flooded paddy conditions, SAGPY (Arrowhead (Pygmaea)); format: in vivo; settings: preemergence, flooded paddy; on herbicidal effect rating, SAGPY: meaning of each grade not given here
[5] = Rate 0.0320 kg/ha, rated 3-4 weeks after treatment
[6] = Rate 0.0620 kg/ha, rated 3-4 weeks after treatment
[7] = Rate 0.1250 kg/ha, rated 3-4 weeks after treatment
[8] = Rate 0.2500 kg/ha, rated 3-4 weeks after treatment
[9] = Rate 0.5000 kg/ha, rated 3-4 weeks after treatment
[10] = 0.0313 kg/ha, rated three to four weeks after treatment
[11] = 0.0625 kg/ha, rated three to four weeks after treatment
[12] = 0.1250 kg/ha, rated three to four weeks after treatment
[13] = 0.2500 kg/ha, rated three to four weeks after treatment
[14] = Rate 0.0320 kg/ha, rated three to four weeks after treatment
[15] = Rate 0.0620 kg/ha, rated three to four weeks after treatment
[16] = Rate 0.1250 kg/ha, rated three to four weeks after treatment
[17] = Rate 0.2500 kg/ha, rated three to four weeks after treatment
[18] = Rate 0.5000 kg/ha, rated three to four weeks after treatment

C=CS(=O)(=O)NC(=O)COc1ccc(C)cc1-c1nsc2ccc(-n3c(=O)cc(C(F)(F)F)n(C)c3=O)cc12 [Example 553, Acetamide, 2-{{2-{5-[3,6-dihydro-3-methyl-2,6-dioxo-4-(trifluoromethyl)-1(2H)-pyrimidinyl]-1,2-benzisothiazol-3-yl}-p-tolyl}oxy}-N-(vinylsulfonyl)-]
herbicidal effect rating, ECHORC [1, 5]: 1.3
herbicidal effect rating, ECHORC [1, 6]: 2.1
herbicidal effect rating, ECHORC [1, 7]: 6.4
herbicidal effect rating, ECHORC [1, 8]: 9.0
herbicidal effect rating, ECHORC [1, 9]: 7.0
herbicidal effect rating, CYPIR (Cyperus iria; [5]): 2.0
herbicidal effect rating, CYPIR (Cyperus iria; [6]): 6.0
herbicidal effect rating, CYPIR (Cyperus iria; [7]): 7.0
herbicidal effect rating, CYPIR (Cyperus iria; [8]): 9.0
herbicidal effect rating, CYPIR (Cyperus iria; [9]): 4.0
herbicidal effect rating ORYSAT ([2]; Rate 0.0320 kg/ha): 3.0
herbicidal effect rating ORYSAT ([2]; Rate 0.0620 kg/ha): 4.0
herbicidal effect rating ORYSAT ([2]; Rate 0.1250 kg/ha): 4.0
herbicidal effect rating ORYSAT ([2]; Rate 0.2500 kg/ha): 6.0
herbicidal effect rating ORYSAT ([2]; Rate 0.5000 kg/ha): 4.0
herbicidal effect rating, CYPSE [3, 5]: 0.0
herbicidal effect rating, CYPSE [3, 6]: 0.0
herbicidal effect rating, CYPSE [3, 8]: 2.0
herbicidal effect rating, CYPSE [3, 9]: 9.0
herbicidal effect rating, MOOVA [4, 5]: 7.0
herbicidal effect rating, MOOVA [4, 6]: 9.0
herbicidal effect rating, MOOVA [4, 7]: 9.0
herbicidal effect rating, MOOVA [4, 8]: 9.0
herbicidal effect rating, MOOVA [4, 9]: 9.0
herbicidal effect rating, SAGPY (Sagittaria pygmaea, L.; [5]): 0.0
herbicidal effect rating, SAGPY (Sagittaria pygmaea, L.; [6]): 0.0
herbicidal effect rating, SAGPY (Sagittaria pygmaea, L.; [7]): 0.0
herbicidal effect rating, SAGPY (Sagittaria pygmaea, L.; [8]): 0.0
herbicidal effect rating, SAGPY (Sagittaria pygmaea, L.; [9]): 0.0

CCc1ccc(OC(C)C(=O)OC)c(-c2nsc3ccc(-n4c(=O)cc(C(F)(F)F)n(C)c4=O)cc23)c1 (centres unmarked) [Example 28, Methyl 2-{2-{5-[3,6-dihydro-3-methyl-2,6-dioxo-4-(trifluoromethyl)-1(2H)-pyrimidinyl]-1,2-benzisothiazol-3-yl}-4-ethylphenoxy}propionate]
herbicidal effect rating, ECHORC [1, 10]: 8.0
herbicidal effect rating, ECHORC [1, 11]: 9.0
herbicidal effect rating, ECHORC [1, 12]: 9.0
herbicidal effect rating, ECHORC [1, 13]: 9.0
herbicidal effect rating, CYPIR (Cyperus iria; [10]): 2.0
herbicidal effect rating, CYPIR (Cyperus iria; [11]): 4.0
herbicidal effect rating, CYPIR (Cyperus iria; [12]): 6.0
herbicidal effect rating, CYPIR (Cyperus iria; [13]): 9.0
herbicidal effect rating, ORYSAT (rice tolerance) ([2]; 0.0313 kg/ha): 3.0
herbicidal effect rating, ORYSAT (rice tolerance) ([2]; 0.0625 kg/ha): 4.0
herbicidal effect rating, ORYSAT (rice tolerance) ([2]; 0.1250 kg/ha): 7.0
herbicidal effect rating, ORYSAT (rice tolerance) ([2]; 0.2500 kg/ha): 9.0
herbicidal effect rating, CYPSE [3, 10]: 0.0
herbicidal effect rating, CYPSE [3, 11]: 0.0
herbicidal effect rating, CYPSE [3, 12]: 0.0
herbicidal effect rating, CYPSE [3, 13]: 4.0
herbicidal effect rating, MOOVA [4, 10]: 8.0
herbicidal effect rating, MOOVA [4, 11]: 9.0
herbicidal effect rating, MOOVA [4, 12]: 9.0
herbicidal effect rating, MOOVA [4, 13]: 9.0
herbicidal effect rating, SAGPY (Sagittaria pygmaea, L.; [10]): 0.0
herbicidal effect rating, SAGPY (Sagittaria pygmaea, L.; [11]): 2.0
herbicidal effect rating, SAGPY (Sagittaria pygmaea, L.; [12]): 4.0
herbicidal effect rating, SAGPY (Sagittaria pygmaea, L.; [13]): 8.0

Cn1c(C(F)(F)F)cc(=O)n(-c2ccc3snc(-c4ccc(OCC(=O)O)cc4)c3c2)c1=O [Example 281, Acetic acid, {p-{5-[3,6-dihydro-3-methyl-2,6-dioxo-4-(trifluoromethyl)-1(2H)-pyrimidinyl]-1,2-benzisothiazol-3-yl}phenoxy}-]
ECHORC herbicidal effect rating [1, 14]: 0.0
ECHORC herbicidal effect rating [1, 15]: 5.9
ECHORC herbicidal effect rating [1, 16]: 7.1
ECHORC herbicidal effect rating [1, 17]: 9.0
ECHORC herbicidal effect rating [1, 18]: 7.0
CYPIR herbicidal effect rating (Cyperus iria; [14]): 4.0
CYPIR herbicidal effect rating (Cyperus iria; [15]): 8.0
CYPIR herbicidal effect rating (Cyperus iria; [16]): 9.0
CYPIR herbicidal effect rating (Cyperus iria; [17]): 9.0
CYPIR herbicidal effect rating (Cyperus iria; [18]): 9.0
ORYSAT herbicidal effect rating ([2]; Rate 0.0320 kg/ha): 0.0
ORYSAT herbicidal effect rating ([2]; Rate 0.0620 kg/ha): 2.0
ORYSAT herbicidal effect rating ([2]; Rate 0.1250 kg/ha): 4.0
ORYSAT herbicidal effect rating ([2]; Rate 0.2500 kg/ha): 6.0
ORYSAT herbicidal effect rating ([2]; Rate 0.5000 kg/ha): 4.0
CYPSE herbicidal effect rating [3, 14]: 9.0
CYPSE herbicidal effect rating [3, 15]: 9.0
CYPSE herbicidal effect rating [3, 16]: 9.0
CYPSE herbicidal effect rating [3, 17]: 9.0
CYPSE herbicidal effect rating [3, 18]: 9.0
MOOVA herbicidal effect rating [4, 14]: 9.0
MOOVA herbicidal effect rating [4, 15]: 9.0
MOOVA herbicidal effect rating [4, 16]: 9.0
MOOVA herbicidal effect rating [4, 17]: 9.0
MOOVA herbicidal effect rating [4, 18]: 9.0
SAGPY herbicidal effect rating (Sagittaria pygmaea, L.; [14]): 0.0
SAGPY herbicidal effect rating (Sagittaria pygmaea, L.; [15]): 0.0
SAGPY herbicidal effect rating (Sagittaria pygmaea, L.; [16]): 2.0
SAGPY herbicidal effect rating (Sagittaria pygmaea, L.; [17]): 8.0
SAGPY herbicidal effect rating (Sagittaria pygmaea, L.; [18]): 9.0

Cc1ccc(OC(C)(C)C(=O)OCC(F)(F)F)c(-c2nsc3ccc(-n4c(=O)cc(C(F)(F)F)n(C)c4=O)cc23)c1 [Example 545, Propionic acid, 2-{{2-{5-[3,6-dihydro-3-methyl-2,6-dioxo-4-(trifluoromethyl)-1(2H)-pyrimidinyl]-1,2-benzisothiazol-3-yl}-p-tolyl}oxy}-2-methyl-, 2,2,2-trifluoroethyl ester]
herbicidal effect rating, ECHORC [1, 5]: 5.6
herbicidal effect rating, ECHORC [1, 6]: 6.6
herbicidal effect rating, ECHORC [1, 7]: 7.0
herbicidal effect rating, ECHORC [1, 8]: 9.0
herbicidal effect rating, ECHORC [1, 9]: 9.0
herbicidal effect rating, CYPIR (Cyperus iria; [5]): 4.0
herbicidal effect rating, CYPIR (Cyperus iria; [6]): 5.0
herbicidal effect rating, CYPIR (Cyperus iria; [7]): 6.0
herbicidal effect rating, CYPIR (Cyperus iria; [8]): 7.0
herbicidal effect rating, CYPIR (Cyperus iria; [9]): 9.0
herbicidal effect rating ORYSAT ([2]; Rate 0.0320 kg/ha): 2.0
herbicidal effect rating ORYSAT ([2]; Rate 0.0620 kg/ha): 2.0
herbicidal effect rating ORYSAT ([2]; Rate 0.1250 kg/ha): 4.0
herbicidal effect rating ORYSAT ([2]; Rate 0.2500 kg/ha): 9.0
herbicidal effect rating ORYSAT ([2]; Rate 0.5000 kg/ha): 9.0
herbicidal effect rating, CYPSE [3, 5]: 0.0
herbicidal effect rating, CYPSE [3, 6]: 0.0
herbicidal effect rating, CYPSE [3, 7]: 9.0
herbicidal effect rating, CYPSE [3, 8]: 9.0
herbicidal effect rating, CYPSE [3, 9]: 6.0
herbicidal effect rating, MOOVA [4, 5]: 6.0
herbicidal effect rating, MOOVA [4, 6]: 7.0
herbicidal effect rating, MOOVA [4, 7]: 9.0
herbicidal effect rating, MOOVA [4, 8]: 9.0
herbicidal effect rating, MOOVA [4, 9]: 9.0
herbicidal effect rating, SAGPY (Sagittaria pygmaea, L.; [5]): 0.0
herbicidal effect rating, SAGPY (Sagittaria pygmaea, L.; [6]): 0.0
herbicidal effect rating, SAGPY (Sagittaria pygmaea, L.; [7]): 4.0
herbicidal effect rating, SAGPY (Sagittaria pygmaea, L.; [8]): 7.0
herbicidal effect rating, SAGPY (Sagittaria pygmaea, L.; [9]): 9.0
